Test results as given in patent US20220332726A1, “NITROXIDE DERIVATIVE OF ROCK KINASE INHIBITOR” (VIVAVISION (SHANGHAI) LTD, priority 2020, published 2022).
pIC50: −log10 of the molar value.

Columns and labels:
[1] = system: Phospho-Myosin Light Chain2 (Ser19); test: Cell activity test: MLC2 (Ser19) phosphorylation in A7R5 cells (Western blot); assay type: cell-based; details: starved 20 hours, compound treatment 60 minutes, MLC2 (Ser19) phosphorylation corrected with GAPDH, read-out: cell activities (IC50)
Experimental: Example 43: Cell Activity Test
1) The A7R5 cells in the logarithmic growth phase were digested, 2E5 cells per well were inoculated in a 6-well plate and incubated overnight at 37° C. with 5% CO2, and the cell culture medium was replaced with a starvation medium containing 0.05% FBS after 24 hours. The cells were starved for 20 hours.
2) The starvation medium was removed, the cells were treated with the prepared compound concentration gradient for 60 minutes, VIP-5021 (10 uM) was set as the positive control, and the DMSO group was set as the negative control.
3) After the compound treatment, the compound solutions were aspirated, washed with PBS two times, 100 ul of cell lysate was added to each well, the cells were gently scraped with a cell scraper, and the cells were transferred to a centrifuge tube and lysed on ice for 60 minutes.
4) After the lysis, centrifugation was performed at 4° C. and 14000 rpm for 15 minutes, the lysate supernatant was collected, protein quantification was performed using the BCA method, the protein concentration was adjusted, the loading buffer was added according to proportion, and treatment was performed at 100° C. for 10 minutes to denature the protein.
5) An electrophoresis equipment was assembled, 20 ug of total protein was loaded per sample, the voltage was fixed at 125 V, and electrophoresis was performed for 90 minutes. After the electrophoresis was completed, the membrane transfer system was assembled with a fixed current of 300 mA and the membrane was transferred for 120 minutes. After the membrane transfer was completed, the PVDF membrane was removed and washed with PBS two times. A blocking solution was added to block at room temperature for 60 minutes. The blocking solution was removed, a solution containing the primary antibody (Phospho-Myosin Light Chain2 (Ser19)) (antibody dilution ratio 1:1000) was added, GAPDH was selected as internal control, and incubation was performed overnight at 4° C.
6) Washing was performed with PBST three times, HRP-antibody containing the corresponding species (secondary antibody dilution ratio 1:2000) was added, incubation was performed at room temperature for 60 minutes, and washing was performed with PBST three times. HRP chemiluminescence substrate was prepared, and dropwisely added on the PVDF membrane based on 0.1 mL per square centimeter to react for 30 seconds, and the chemiluminescence signal was collected with a gel imager (ChemiDoc XRS+(BIO-RAD)).
7) Each band was quantitatively analyzed using image J software, and the phosphorylated protein level of Phospho-Myosin Light Chain2 (Ser19) in each sample was corrected using GAPDH expression as internal reference.
1) Taking the MLC2 (Ser19) protein phosphorylation level of the highest concentration compound sample as 100% inhibition rate, and taking the MLC2 (Ser19) protein phosphorylation level of the negative control group (DMSO group) as 0% inhibition rate, the percentage inhibition rate corresponding to each concentration of the test compounds was calculated.
2) In the GraphPad Prism software, a nonlinear regression analysis was performed on the logarithm of the concentrations of the test compounds and the corresponding percentage inhibition rates to obtain the half-inhibitory concentrations (IC50) of the cell levels of the test compounds.
The cell activities (IC50) of the compounds detected by this method are as follows: […]

[2] = biological target: ROCK2 (Homo sapiens, UniProt O75116); test: ROCK2 kinase inhibitor activity test (HTRF); assay type: biochemical; details: ROCK2 1 nM, substrate 500 nM, ATP 6 uM, 1.5 hours at room temperature, read-out: ROCK2 kinase inhibitor activities (IC50)
Experimental: ROCK2 Kinase Inhibitor Activity Test
1) 4× ROCK2 reaction solution, 4×ATP reaction solution, 4× substrate solution, and 4× compound solution were prepared according to experimental requirements.
2) 2.5 μL of 4× kinase solution and 2.5 μL of diluted 4× test compound solutions with different concentration gradients were added to a 384-well plate. 2 replicate wells were provided for each concentration, and an enzyme solution blank control group and a negative control group (DMSO group) were provided at the same time. Centrifugation was performed at 1000 rpm for 1 minute, and the enzyme and the compounds were mixed. 2.5 μL of 4× substrate solution was added to the 384-well plate, centrifugation was performed at 1000 rpm for 1 minute, 2.5 μL of 4× ATP solution was added to the 384-well plate, centrifugation was performed at 1000 rpm for 1 minute to start the enzyme reaction, and incubation was performed at room temperature for 1.5 hours.
The final concentration of each component of the ROCK2 reaction was: ROCK2: 1 nM, substrate: 500 nM, ATP: 6 uM, and the final concentration range of the test compounds was: 100 nM to 5 pM.
3) 4× Streptavidin-XL-665 detection solution was prepared according to experimental requirements.
4) After the enzyme reaction was completed, 5 ul of 4× Streptavidin-XL-665 detection solution was added to each well of the 384-well plate, and centrifugation was performed at 1000 rpm for 1 minute. 5 μL of 4×STK Antibody-cryptate detection antibody solution was added to each well of the 384-well plate, centrifugation was performed at 1000 rpm for 1 minute, and incubation was performed for 1 hour at room temperature.
5) After antibody incubation was completed, the signal value of each well was measured by the HTRF program on an Envision plate reader.
1) Taking the enzyme solution blank control group as 100% inhibition rate and the negative control group (DMSO group) as 0% inhibition rate, the percentage inhibition rate corresponding to each concentration of the test compound was calculated.
2) In the GraphPad Prism software, a nonlinear regression analysis was performed on the logarithm of the concentrations of the test compounds and the corresponding percentage inhibition rates to obtain the half-inhibitory concentrations (IC50) of the test compounds.
The ROCK2 kinase inhibitor activities (IC50) of the compounds detected by this method are as follows: […]

ROCK2, sequence (O75116 whole entry): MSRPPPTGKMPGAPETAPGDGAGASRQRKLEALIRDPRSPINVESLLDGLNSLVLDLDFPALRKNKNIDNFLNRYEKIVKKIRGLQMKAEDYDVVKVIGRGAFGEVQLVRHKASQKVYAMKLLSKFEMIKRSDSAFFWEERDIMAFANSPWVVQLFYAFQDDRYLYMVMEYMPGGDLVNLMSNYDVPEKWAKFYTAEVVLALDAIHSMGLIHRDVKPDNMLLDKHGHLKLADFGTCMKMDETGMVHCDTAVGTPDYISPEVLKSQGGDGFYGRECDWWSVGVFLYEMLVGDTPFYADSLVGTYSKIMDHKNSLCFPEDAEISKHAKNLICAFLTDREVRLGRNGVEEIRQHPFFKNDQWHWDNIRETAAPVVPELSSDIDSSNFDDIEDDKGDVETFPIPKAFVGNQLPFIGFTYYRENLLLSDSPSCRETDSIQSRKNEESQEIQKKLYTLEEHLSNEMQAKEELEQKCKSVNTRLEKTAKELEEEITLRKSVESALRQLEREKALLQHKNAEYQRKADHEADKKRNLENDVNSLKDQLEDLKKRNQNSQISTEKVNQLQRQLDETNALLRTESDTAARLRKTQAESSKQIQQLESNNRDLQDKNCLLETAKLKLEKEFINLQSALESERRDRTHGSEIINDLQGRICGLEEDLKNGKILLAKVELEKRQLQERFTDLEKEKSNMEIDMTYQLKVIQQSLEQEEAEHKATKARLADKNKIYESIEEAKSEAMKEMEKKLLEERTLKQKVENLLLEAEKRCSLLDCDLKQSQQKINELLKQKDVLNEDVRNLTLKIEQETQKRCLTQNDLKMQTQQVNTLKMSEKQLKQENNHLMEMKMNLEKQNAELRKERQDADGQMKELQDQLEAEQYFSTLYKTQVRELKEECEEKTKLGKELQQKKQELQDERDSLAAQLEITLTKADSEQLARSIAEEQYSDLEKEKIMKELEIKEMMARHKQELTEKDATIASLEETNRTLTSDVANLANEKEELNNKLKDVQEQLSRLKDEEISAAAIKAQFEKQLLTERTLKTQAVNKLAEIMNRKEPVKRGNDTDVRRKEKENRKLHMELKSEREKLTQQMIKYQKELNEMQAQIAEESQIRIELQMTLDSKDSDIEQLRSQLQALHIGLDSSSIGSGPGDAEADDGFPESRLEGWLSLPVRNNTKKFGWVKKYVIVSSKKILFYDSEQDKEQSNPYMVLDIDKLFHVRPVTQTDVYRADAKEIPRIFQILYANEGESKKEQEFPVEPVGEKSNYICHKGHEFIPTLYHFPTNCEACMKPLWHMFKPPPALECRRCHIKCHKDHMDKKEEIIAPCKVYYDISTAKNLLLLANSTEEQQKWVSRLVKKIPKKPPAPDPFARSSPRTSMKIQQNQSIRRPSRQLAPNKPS

| Structure (SMILES) | pIC50 [1] | pIC50 [2] |
| --- | --- | --- |
| NC[C@@H](C(=O)Nc1cc2ccncc2s1)c1ccc(CO[N+](=O)[O-])cc1 [Example 1, (S)-4-(3-amino-1-oxo-1-(thieno[2,3-c]pyridin-2-ylamino)prop-2-yl)benzyl nitrate] | 7.28 | 9.30 |
| NCC(C(=O)Nc1cc2ccncc2s1)c1ccc(OCC(CO[N+](=O)[O-])O[N+](=O)[O-])cc1 (stereo not shown) [Example 7, 3-(4-(3-amino-1-oxo-1-(thieno[2,3-c]pyridin-2-ylamino)prop-2-yl)phenoxy)propane-1,2-dinitrate] | 8.06 | 8.66 |
| NCC(C(=O)Nc1cc2ccncc2s1)c1ccc(CCCO[N+](=O)[O-])cc1 (stereo not shown) [Example 8, 3-(4-(3-amino-1-oxo-1-thieno[2,3-c]pyridin-2-ylamino)prop-2-yl)phenyl)propyl nitrate] | 7.45 | 8.23 |
| NC[C@@H](C(=O)Nc1cc2ccncc2s1)c1ccc(COC(=O)CCCCO[N+](=O)[O-])cc1 [Example 9, (S)-4-(3-amino-1-oxo-1-(thieno[2,3-c]pyridin-2-ylamino)prop-2-yl)benzyl 5-(nitrooxy)valerate] | 7.52 | 8.99 |
| NC[C@@H](C(=O)Nc1cc2ccncc2s1)c1ccc(CCO[N+](=O)[O-])cc1 [Example 11, (S)-4-(3-amino-1-oxo-1-(thieno[2,3-c]pyridin-2-ylamino)propan-2-yl)phenethyl nitrate] | 7.67 | 8.22 |
| NC[C@@H](C(=O)Nc1cc2ccncc2s1)c1ccc(COC(=O)OCCCCO[N+](=O)[O-])cc1 [Example 13, (S)-4-(3-amino-1-oxo-1-(thieno[2,3-c]pyridin-2-ylamino)prop-2-yl)benzyl(4-(nitrooxy)butyl)carbonate] | 7.40 | 8.82 |
| NC[C@@H](C(=O)Nc1cc2ccncc2s1)c1ccc(COC(=O)C2C[C@@H](O[N+](=O)[O-])[C@H](O[N+](=O)[O-])C2)cc1 [Example 37, (3R,4R)-4-((S)-3-amino-1-oxy-1-(thieno[2,3-c]pyridin-2-ylamino)propan-2-yl)benzyl 3,4-bis(nitrooxy)cyclopentane carboxylate] |  | 8.84 |
| NC[C@@H](C(=O)Nc1cc2ccncc2s1)c1ccc(COC(=O)C2CCC(CO[N+](=O)[O-])CC2)cc1 (stereo partly drawn) [Example 38, (1r,4S)-4-((S)-3-amino-1-oxy-1-(thieno[2,3-c]pyridin-2-ylamino)propan-2-yl)benzyl 4-((nitrooxy)methyl)cyclohexanecarboxylic acid] |  | 7.71 |
| NC[C@@H](C(=O)Nc1cc2ccncc2s1)c1ccc(COC(=O)[C@@H]2CCCN2CCO[N+](=O)[O-])cc1 [Example 39] |  | 7.53 |
| CN(C)C[C@@H](C(=O)Nc1cc2ccncc2s1)c1ccc(COC(=O)C(C)(CO[N+](=O)[O-])CO[N+](=O)[O-])cc1 [Example 40, (S)-4-(3-(dimethylamino)-1-oxo-1-(thieno[2,3-c]pyridin-2-ylamino)propan-2-yl)benzyl 2-methyl-3-(nitrooxy)-2-((nitrooxy)methyl)propionate] |  | 8.69 |
